From ChEMBL document CHEMBL1201862, “PubChem BioAssay data set” (2004)
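Where inhibition never reached the appropriate level, the endpoint shown equals the highest concentration tested. Otherwise, values were interpolated linearly from a five-concentration, 48-hour dose response in 96-well plates. GI50: concentration for 50% inhibition of growth.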 Activity calls are given as the source filed them. Cut-off read from the data, not from the text of the source: active = GI50 up to about 1.1 µM and inactive = higher.

Assays:
Test in all cases: NCI anticancer screen, dose series, 48 h
[1] = test system: UO-31
[2] = test system: SNB-75
[3] = test system: HL-60
[4] = test system: HOP-92
[5] = test system: SK-MEL-28
[6] = test system: OVCAR-4
[7] = test system: Malme-3M
[8] = test system: OVCAR-3
[9] = test system: OVCAR-5
[10] = test system: SF-268
[11] = test system: IGROV-1
[12] = test system: RXF 393
[13] = test system: U-251
[14] = test system: OVCAR-8
[15] = test system: SR
[16] = test system: SK-MEL-5
[17] = test system: M14
[18] = test system: UACC-257

Measured: GI50

Nc1ccc(C(=O)N/C(=C\c2cccc([N+](=O)[O-])c2)c2nc3ccccc3[nH]2)cc1
inactive: [1] 20.6 µM | [2] 23.3 µM | [3] > 81.7 µM | [4] 23.6 µM | [5] > 92.9 µM | [6] 25.1 µM | [7] 57.3 µM | [8] 50.2 µM | [9] > 100 µM | [10] 21.8 µM | [11] 28.5 µM | [12] 24.9 µM | [13] 41.4 µM | [14] 33.1 µM | [15] > 100 µM | [16] 76.4 µM | [17] > 100 µM

CC(=O)c1ccc(NC(=O)COC(=O)c2cccc3c(=O)c4ccccc4[nH]c23)cc1
inactive: [1] 96.2 µM | [2] 10.1 µM | [3] > 100 µM | [4] 25.9 µM | [18] 57.7 µM | [5] 40.6 µM | [6] 6.79 µM | [7] 42.5 µM | [8] 27.2 µM | [10] 20.5 µM | [11] 37.4 µM | [12] 18 µM | [13] 15.5 µM | [14] 9.2 µM | [15] > 100 µM | [16] 29.4 µM | [17] 31.4 µM

CC(=O)C=C1Nc2ccccc2N1
inactive: [1] > 100 µM | [2] 36.9 µM | [3] > 100 µM | [18] > 100 µM | [5] > 100 µM | [6] > 100 µM | [7] > 100 µM | [8] > 100 µM | [9] > 100 µM | [10] > 100 µM | [11] > 100 µM | [12] > 100 µM | [13] > 100 µM | [14] > 100 µM | [15] > 100 µM | [16] > 100 µM | [17] > 100 µM

C[Si](C)(C)CN1C(=O)c2ccccc2C1(O)c1ccccc1 (configuration not stated)
inactive: [1] 30.5 µM | [2] 84.7 µM | [3] 40.7 µM | [4] 44.6 µM | [18] 57.3 µM | [5] > 100 µM | [6] 70.6 µM | [7] > 100 µM | [8] > 86.3 µM | [9] > 100 µM | [10] 98.4 µM | [11] 99.5 µM | [12] 75.2 µM | [13] > 100 µM | [14] > 100 µM | [15] 83.6 µM | [16] 46.6 µM | [17] > 100 µM

Cc1ccc(NC(=O)CC2SC(Nc3ccc(Cl)cc3)=NC2=O)cc1C (configuration not stated)
inactive: [1] 18.6 µM | [2] 17.7 µM | [3] 3.12 µM | [4] 14.4 µM | [18] 15.9 µM | [5] 19.5 µM | [6] 20.2 µM | [7] 18.5 µM | [8] 18.9 µM | [9] 19 µM | [10] 18.3 µM | [11] > 46.3 µM | [12] 17.1 µM | [13] 18.5 µM | [14] 18 µM | [15] 6.59 µM | [16] 20.3 µM | [17] 16.9 µM

COC(=O)C(=O)C1(CCC(C)=O)c2ccccc2-c2c(C)ccc(C)c21 (configuration not stated)
inactive: [1] 25.4 µM | [2] 53 µM | [3] 10.3 µM | [18] 33 µM | [5] > 100 µM | [6] 68.9 µM | [7] 40.4 µM | [8] 32 µM | [9] > 100 µM | [10] 52.2 µM | [11] 57.8 µM | [12] 32.1 µM | [13] 41.8 µM | [14] 34.4 µM | [15] 19.2 µM | [16] 25.5 µM | [17] 46.8 µM

CC12CC[C@H](O)C(C)(C)[C@H]1CC[C@](C)(O)C2COc1ccc2ccc(=O)oc2c1 (some centres not stated)
inactive: [1] > 100 µM | [2] 62.2 µM | [3] 53.1 µM | [4] > 100 µM | [18] > 100 µM | [5] > 100 µM | [6] > 100 µM | [7] 73.6 µM | [8] > 100 µM | [10] > 100 µM | [11] > 100 µM | [12] > 100 µM | [13] > 100 µM | [14] > 100 µM | [15] > 100 µM | [17] > 100 µM

Cc1ccc2[nH]c(Sc3c([N+](=O)[O-])ncn3C)nc2c1
inactive: [1] 27.5 µM | [2] 25.3 µM | [4] 16.1 µM | [18] 12.6 µM | [5] 37.4 µM | [6] 18.1 µM | [7] 15.8 µM | [8] 17.5 µM | [9] 46.8 µM | [10] 31.5 µM | [11] 22.1 µM | [12] 16.1 µM | [13] 22.9 µM | [14] 14.4 µM | [15] 12.3 µM | [16] 17.1 µM | [17] 17.6 µM

O=C(O)C(C(=O)C(=O)C(C(=O)O)c1ccc(Cl)cc1)c1ccc(Cl)cc1 (configuration not stated)
inactive: [1] 4.72 µM | [2] 3.32 µM | [3] 2.18 µM | [4] 3.11 µM | [18] 2.75 µM | [5] 4.54 µM | [6] 1.89 µM | [7] 2.5 µM | [8] 2.9 µM | [9] 4.25 µM | [10] 2.9 µM | [11] 3.23 µM | [12] 3.92 µM | [13] 3.22 µM | [14] 2.25 µM | [15] 1.91 µM | [17] 4.45 µM

CCCCCCCCCCCCCP(=O)(OC)OC
inactive: [1] 16.3 µM | [2] 21.2 µM | [3] 15.6 µM | [4] 16.9 µM | [18] 19.4 µM | [5] 24.3 µM | [6] 19.8 µM | [7] 22.5 µM | [8] 20.2 µM | [9] 16.5 µM | [11] 19.3 µM | [12] 31.8 µM | [13] 18.5 µM | [14] 17 µM | [15] 19 µM | [16] 18.6 µM | [17] 19.9 µM

CC(C)NCCNC(=O)c1ccccc1Nc1c(Cl)cccc1Cl
inactive: [1] 10.1 µM | [2] 4.63 µM | [3] 8.71 µM | [18] 10.3 µM | [5] 14.4 µM | [6] 14.4 µM | [8] 12.6 µM | [9] 7.38 µM | [10] 18.1 µM | [11] 16 µM | [12] 5.08 µM | [13] 4.65 µM | [14] 16.6 µM | [15] 9.06 µM | [16] 5.04 µM | [17] 11.5 µM

C[N+](C)(C)CC(=O)N/N=C(/Cc1cc(=O)oc2cc(O)ccc12)C(=O)Nc1ccc(Cl)cc1
inactive: [1] > 100 µM | [3] > 100 µM | [18] > 100 µM | [5] > 100 µM | [6] > 100 µM | [7] > 100 µM | [8] > 100 µM | [9] > 100 µM | [10] > 100 µM | [11] > 100 µM | [12] > 100 µM | [14] > 100 µM | [15] > 100 µM | [16] > 100 µM | [17] > 100 µM
